Laboratory results from patent publication US10258610B2, “Pharmaceutical compositions comprising rifaximin, processes for their preparation and their use in the treatment of vaginal infections” (ALFASIGMA S.P.A., priority 2011, dated 2019).
Entries after “also recorded” stand apart in the source; their conditions may differ. Like-named read-outs stand apart in the source and are kept apart here.

Columns and labels:
Lactobacillus = test: Vaginal microbiota by quantitative real-time PCR; type: in vivo; settings: for Target DNA/genomic vaginal DNA, Lactobacillus / Target DNA/genomic or vaginal DNA, Lactobacillus: average; for Target DNA/genomic or vaginal DNA, Lactobacillus: visit V4, patients maintaining recovery; for increase of Lactobacilli concentration: visit V4
Experimental: During the clinical trial, described in Example 12, samples of vaginal cleansing were collected and the composition of vaginal microbiota was determined by means of the quantitative real-time PCR.
With the real-time PCR the DNA samples are amplified with gender- and/or species-specific primers whose target is the 16S rRNA bacterial gene or the 16S-23 S rRNA region.
In particular, specific probes were used for the Lactobacillus gender, for Gardnerella vaginalis, for Atopobium, for Prevotella and for Veillonella, since they represent the main bacterial groups suffering from modifications in case of bacterial vaginosis.
Table 28 reports the values of real-time PCR relating to bacterial genders and species quantified in vaginal cleansings of women belonging to the different treatment groups, expressed as total target DNA ng/genomic DNA μg, for microbial species tested for each group at the visit V3 if compared to the visit V1.
The composition of vaginal microbiota was determined by means of the quantitative real-time PCR technique of patients maintaining their recovery at the visit V4, 30-40 days after the end of the therapy, and the DNA samples amplified with gender- and/or species-specific primers were evaluated by means of the real-time PCR technique.
Table 29 reports the values of real-time PCR relating to target bacterial genders and species quantified in vaginal rinses of women belonging to the different treatment groups, expressed as total target DNA ng/genomic DNA μg, for microbial species tested for each group at the visit V4 when compared to the values observed at the visit V1 of all treated patients.

[1] = Phase II clinical trial, adverse events; type: in vivo, human
Text: The adverse events reported by patients were registered, and the most frequent one was the rifaximin related vulvovaginal itching and burning.
In Table 23 it is reported the percentage of patients belonging to different treatment groups who reported adverse events both systemic and local, vulvovaginal itching and burning related to rifaximin.

[2] = Phase I systemic absorption of rifaximin vaginal tablets in healthy volunteers; type: in vivo, human; settings: single 100 mg vaginal tablet, 30 minutes to 24 hours; LLOQ 0.5 ng/ml
Experimental: The samples were analyzed by liquid chromatography equipped with mass spectrometry detector, with a lower limit of quantization (LLOQ) of rifaximin concentration 0.5 ng/ml.

Gardnerella vaginalis = type: in vivo, New Zealand rabbits (Oryctolagus cunicolis)
Experimental: The efficacy of vaginal compositions in rifaximin containing tablets and ovules was evaluated in an animal model of bacterial infection persistent in the rabbit.
The vaginal infection model was induced by inoculation of Gardnerella vaginalis isolated from women affected by bacterial vaginosis. The bacterial strains were grown in agar of bovine red blood cells at 37° C. by adding a DIFCO-C supplement and were kept under controlled atmosphere 5% CO2 for 24-48 hours.
For developing the model of animal infection, New Zealand rabbits (Oryctolagus cunicolis) having a weight comprised between 2 and 3 kg were used.
Before the infection, the animals had been treated with 1 ml 10% enrofloxacin solution for reducing the endogenous Lactobacilli and facilitating the growth of pathogenic agent. The infection was induced by inoculating in the animals vagina 1 ml of sterile saline solution containing 106-7 UFC (Unit Forming Colony) of Gardnerella vaginalis by using a 22-24G Teflon catheter. The presence of G. vaginalis in the animals was verified before the inoculation and 24 and 48 hours after the inoculation.
The animals were inoculated twice and thrice at time intervals of three days. After 14 days the last inoculation all animals were treated with 1 ml 10% enrofloxacin solution to verify the model sensitivity to antibiotics. The treatment healed the infection, thus confirming that the model can be used to evaluate the efficacy of antibiotics administered via the intravaginal route.
The presence of G. vaginalis was verified by vaginal buffer 1, 2, 4, 10 and 14 days after the last inoculation, putting the vaginal buffers in agar plates of bovine red blood cells with DIFCO-C supplement and growing them at 37° C. for 48 hours. The presence of G. vaginalis was verified by means of microscope (1000×) morphological identification and with Gram staining.
Three and seven days after the end of the rifaximin treatment, the presence of Gardnerella vaginalis was evaluated by means of vaginal buffers as previously described.
The vaginal buffers were considered positive if 10 or more colonies were counted, and the presence of malodorous vaginal discharges was the clinical sign of the occurred infection.

[3] = Group A: 1 tablet 100 mg × 5 days
[4] = Group B: 1 tablet 25 mg × 5 days
[5] = Group C: 1 tablet 100 mg × 2 days

CO[C@H]1/C=C/O[C@@]2(C)Oc3c(C)c(O)c4c(O)c(c5c(nc6cc(C)ccn65)c4c3C2=O)NC(=O)/C(C)=C\C=C\[C@H](C)[C@H](O)[C@@H](C)[C@@H](O)[C@@H](C)[C@H](OC(C)=O)[C@@H]1C [Rifaximin]
change of Lactobacilli by real-time PCR (Lactobacillus; all groups treated with rifaximin): Lactobacilli increase | Target DNA/genomic vaginal DNA, Lactobacillus (Lactobacillus; visit V1 (before therapy), Group A: 1 tablet 100 mg × 5 days): 16.83 ng/µg | Target DNA/genomic vaginal DNA, Lactobacillus (Lactobacillus; visit V1 (before therapy), Group B: 1 tablet 25 mg × 5 days): 10.06 ng/µg | Target DNA/genomic vaginal DNA, Lactobacillus (Lactobacillus; visit V1 (before therapy), Group C: 1 tablet 100 mg × 2 days): 12.66 ng/µg | Target DNA/genomic vaginal DNA, Lactobacillus (Lactobacillus; visit V3, Group A: 1 tablet 100 mg × 5 days): 20.09 ng/µg | Target DNA/genomic vaginal DNA, Lactobacillus (Lactobacillus; visit V3, Group B: 1 tablet 25 mg × 5 days): 33.78 ng/µg | Target DNA/genomic vaginal DNA, Lactobacillus (Lactobacillus; visit V3, Group C: 1 tablet 100 mg × 2 days): 25.36 ng/µg | Target DNA/genomic or vaginal DNA, Lactobacillus (Lactobacillus; [3]): 21.3 ng/µg | Target DNA/genomic or vaginal DNA, Lactobacillus (Lactobacillus; [4]): 39.57 ng/µg | Target DNA/genomic or vaginal DNA, Lactobacillus (Lactobacillus; [5]): 8.959 ng/µg | increase of Lactobacilli concentration (Lactobacillus; group A: tablet 100 mg rifaximin for five days): twentyfold | increase of Lactobacilli concentration (Lactobacillus; group B: tablet 25 mg rifaximin for five days): fortyfold | increase of Lactobacilli concentration (Lactobacillus; group C: tablet 100 mg rifaximin for two days): eightfold | Patients with adverse events [1, 3]: 35.7% | Patients with vulvovaginal burning [1, 3]: 3.6% | Patients with vulvovaginal itching [1, 3]: 25.0% | Patients with adverse events [1, 4]: 34.6% | Patients with vulvovaginal burning [1, 4]: 19.2% | Patients with vulvovaginal itching [1, 4]: 19.2% | Patients with adverse events [1, 5]: 7.7% | Patients with vulvovaginal burning [1, 5]: 3.8% | Patients with vulvovaginal itching [1, 5]: 3.8% | rifaximin related vulvovaginal candidiasis during treatment ([1]; any of the treated groups): none of the treated groups showed any case of rifaximin-related vulvovaginal candidiasis; also recorded: No rifaximin related vulvovaginal candidiasis | adverse event in the clinical study ([1]; patients treated with 25 mg and 100 mg rifaximin in vaginal tablets): did not show any particular adverse event | rifaximin plasma concentrations [2]: under the analytical detection limit | adverse event during treatment (Gardnerella vaginalis; rabbit, in vivo): No adverse event was observed | eradication of the infection (presence of Gardnerella vaginalis) (Gardnerella vaginalis; seven days after the end of the treatment, tablets and ovules, 1.5 to 12.5 mg): negative for 7 days after the end of the treatment | Eradication (Gardnerella vaginalis; vaginal ovules, rifaximin dose 1.5 mg, after 3 days): 100% | Eradication (Gardnerella vaginalis; vaginal ovules, rifaximin dose 1.5 mg, after 7 days): 100% | Eradication (Gardnerella vaginalis; vaginal ovules, rifaximin dose 3 mg, after 3 days): 88% | Eradication (Gardnerella vaginalis; vaginal ovules, rifaximin dose 3 mg, after 7 days): 100% | Eradication (Gardnerella vaginalis; vaginal ovules, rifaximin dose 6 mg, after 3 days): 88% | Eradication (Gardnerella vaginalis; vaginal ovules, rifaximin dose 6 mg, after 7 days): 100% | Eradication (Gardnerella vaginalis; vaginal ovules, rifaximin dose 12.5 mg, after 3 days): 100% | Eradication (Gardnerella vaginalis; vaginal ovules, rifaximin dose 12.5 mg, after 7 days): 100% | Eradication (Gardnerella vaginalis; vaginal tablets, rifaximin dose 1.5 mg, after 3 days): 88% | Eradication (Gardnerella vaginalis; vaginal tablets, rifaximin dose 1.5 mg, after 7 days): 100% | Eradication (Gardnerella vaginalis; vaginal tablets, rifaximin dose 3 mg, after 3 days): 63% | Eradication (Gardnerella vaginalis; vaginal tablets, rifaximin dose 3 mg, after 7 days): 100% | Eradication (Gardnerella vaginalis; vaginal tablets, rifaximin dose 6 mg, after 3 days): 88% | Eradication (Gardnerella vaginalis; vaginal tablets, rifaximin dose 6 mg, after 7 days): 100% | Eradication (Gardnerella vaginalis; vaginal tablets, rifaximin dose 12.5 mg, after 3 days): 100% | Eradication (Gardnerella vaginalis; vaginal tablets, rifaximin dose 12.5 mg, after 7 days): 100%
